Laboratory results from patent US20190223483A1, “SENSORY MODIFIER COMPOUNDS” (CARGILL, INCORPORATED, priority 2017, published 2019).
Entries after “also recorded” stand apart in the source; their conditions may differ.

Columns and labels:
Type in all cases: in vivo
[1] = Roundtable assessment of spikey/rounded sweetness quality (scale 0 to 3); design: key: 0=none; 1=mostly spikey, some rounded; 2=mostly rounded, some spikey; 3=rounded
Description: (§1) For other sweetness attributes, the solutions were tested by a panel of at least four individuals that are highly-trained in tasting steviol glycoside solutions. The highly-trained panelists used a roundtable methodology to assess each sweetness attribute. To test each solution, the highly-trained panelists dispensed approximately 2 mL of each solution into their own mouths by transfer pipet, dispersed the solution by moving their tongues, and recorded a value for the particular sweetness attribute being tested. Between tasting solutions, the panelists were able to cleanse their palates with water. For each sweetness attribute, the panelist agreed on a descriptive scale with relative intensities assigned for each sweetness attribute and then recorded the values for each sweetness attribute against this. For example, this roundtable assessment of sweetness linger assigned a scale of 0 to 6 with a score of 0 indicating no sweetness linger and a score of 6 indicating extreme sweetness linger. Roundtable assessment of sweetness linger assigned a scale of 0 to 6 with a score of 0 indicating no sweetness linger and a score of 6 indicating extreme sweetness linger (0=none, 1=trace, 2=slight, 3=moderate, 4=definite, 5=strong, 6=extreme). Roundtable assessment of rounded assigned a scale of 0 to 3 with a score of 0 indicating spikey and a score of 3 indicating desirable rounded (0=none, 1=mostly spikey, some rounded, 2=mostly rounded, some spikey, 3=rounded). Roundtable assessment of mouthfeel assigned a scale of 0 to 2 with a score of 0 indicating water and a score of 2 indicating syrupy (0=water, 1=sucrosey, 2=syrupy). Roundtable assessment of bitterness assigned a scale of 0 to 6 with a score of 0 indicating no bitterness and a score of 6 indicating extreme sweetness linger (0=none, 1=trace, 2=slight, 3=moderate, 4=definite, 5=strong, 6=extreme). Roundtable assessment of off tastes assigned a scale of 0 to 6 with a score of 0 indicating no bitterness and a score of 6 indicating extreme off tastes (0=none, 1=trace, 2=slight, 3=moderate, 4=definite, 5=strong, 6=extreme).
A series of assays were carried out to characterize a sweetness quality of a not preferred spikey quality (a zero value) to a more desirable rounded quality (a 3 value) of steviol glycoside compositions with sensory modifier compound using the roundtable methodology described in Example 1. Rounded quality has the sensory experience of being more like sucrose. […] Solutions of steviol glycosides and sensory modifier compound were prepared at increasing ratios of sensory modifier to steviol glycoside by weight. The steviol glycosides were RebA (4 glycoside groups), RebD (5 glycoside groups), RebM (6 glycoside groups), and OPS1-5(7 glycoside groups) and the sensory modifier compound was monocaffeoylquinic and dicaffeoylquinic acids prepared from yerba mate. […] The solutions were tested for spikey/rounded.

[2] = Roundtable assessment of off taste (scale 0 to 6); design: key to Off taste / off taste score: 0 = none; 1 = trace/faint; 2 = slight; 3 = moderate; 4 = definite; 5 = strong; 6 = extreme
Description: as §1
(§2) A series of assays were carried out to characterize off taste (0=none, 1=trace/faint, 2=slight, 3=moderate, 4=definite, 5=strong, 6=extreme) of steviol glycoside compositions with sensory modifier compound using the roundtable methodology described in Example 1. […] Solutions of steviol glycosides and sensory modifier compound were prepared at increasing ratios of sensory modifier to steviol glycoside by weight. The steviol glycosides were RebA (4 glycoside groups), RebD (5 glycoside groups), RebM (6 glycoside groups), and OPS1-5(7 glycoside groups) and the sensory modifier compound was monocaffeoylquinic and dicaffeoylquinic acids prepared from yerba mate. The concentration of steviol glycosides was 700 ppm in each solution. The solutions were tested for off taste. Off taste included astringency, metallic, powdery, numbing, and vapory attributes.

[3] = Roundtable assessment of astringency; design: key: 0 = none; 1 = trace/faint; 2 = slight; 3 = moderate; 4 = definite; 5 = strong; 6 = extreme
[4] = Roundtable assessment of bitterness (scale 0 to 6); design: key: 0 = none; 1 = trace/faint; 2 = slight; 3 = moderate; 4 = definite; 5 = strong; 6 = extreme
Description: as §1
as §2, with “bitterness” for “off taste”, “bitterness.” for “off taste. Off taste included astringency, metallic, powdery, numbing, and vapory attributes.”

[5] = RebM 700 ppm + rosmarinic acid 195 ppm
[6] = RebM 700 ppm + rosmarinic acid 391 ppm
[7] = RebM 700 ppm + rosmarinic acid 586 ppm
[8] = steviol glycoside 700 ppm + yerba mate mono/dicaffeoylquinic acids 236 ppm
[9] = steviol glycoside 700 ppm + yerba mate mono/dicaffeoylquinic acids 300 ppm
[10] = steviol glycoside 700 ppm + yerba mate mono/dicaffeoylquinic acids 400 ppm
[11] = steviol glycoside 700 ppm + yerba mate mono/dicaffeoylquinic acids 472 ppm
[12] = steviol glycoside 700 ppm + yerba mate mono/dicaffeoylquinic acids 500 ppm
[13] = steviol glycoside 700 ppm + yerba mate mono/dicaffeoylquinic acids 600 ppm
[14] = steviol glycoside 700 ppm + yerba mate mono/dicaffeoylquinic acids 700 ppm
[15] = steviol glycoside 700 ppm + yerba mate mono/dicaffeoylquinic acids 708 ppm
[16] = steviol glycoside 700 ppm + yerba mate mono/dicaffeoylquinic acids 800 ppm
[17] = steviol glycoside 700 ppm, sensory modifier 0 ppm
[18] = RebM 700 ppm + cichoric acid (tartaric backbone) […]
[19] = quinic, tartaric or 3-(3,4-dihydroxyphenyl)lactic acid backbone modifier above 200 ppm
[20] = RebM 700 ppm + cichoric acid (tartaric backbone) 772 ppm

C=C1C[C@@]23CC[C@H]4[C@@](C)(CCC[C@@]4(C)C(=O)O[C@@H]4O[C@H](CO)[C@@H](O)[C@H](O[C@@H]5O[C@H](CO)[C@@H](O)[C@H](O)[C@H]5O)[C@H]4O[C@@H]4O[C@H](CO)[C@@H](O)[C@H](O)[C@H]4O)[C@@H]2CC[C@]1(O[C@@H]1O[C@H](CO)[C@@H](O)[C@H](O[C@@H]2O[C@H](CO)[C@@H](O)[C@H](O)[C@H]2O)[C@H]1O[C@@H]1O[C@H](CO)[C@@H](O)[C@H](O)[C@H]1O)C3 [RebM, Rebaudioside M]
Spikey/rounded (spikey = 0) (rounded = 3) ([1]; RebM 100 ppm + yerba mate mono/dicaffeoylquinic acids 100 ppm (1:1)): 0 | Spikey/rounded (spikey = 0) (rounded = 3) ([1]; RebM 200 ppm + yerba mate mono/dicaffeoylquinic acids 200 ppm (1:1)): 0 | Spikey/rounded (spikey = 0) (rounded = 3) ([1]; RebM 300 ppm + yerba mate mono/dicaffeoylquinic acids 300 ppm (1:1)): 1 | Spikey/rounded (spikey = 0) (rounded = 3) ([1]; RebM 400 ppm + yerba mate mono/dicaffeoylquinic acids 400 ppm (1:1)): 1 | Spikey/rounded (spikey = 0) (rounded = 3) ([1]; RebM 500 ppm + yerba mate mono/dicaffeoylquinic acids 500 ppm (1:1)): 1 | Spikey/rounded (spikey = 0) (rounded = 3) ([1]; RebM 600 ppm + yerba mate mono/dicaffeoylquinic acids 600 ppm (1:1)): 1 | Spikey/rounded (spikey = 0) (rounded = 3) [1, 5]: 0 | Spikey/rounded (spikey = 0) (rounded = 3) [1, 6]: 2 | Spikey/rounded (spikey = 0) (rounded = 3) [1, 7]: 3 | Spikey/rounded (spikey = 0) (rounded = 3) ([1]; RebM 700 ppm + yerba mate mono/dicaffeoylquinic acids 700 ppm (1:1)): 2 | rounded quality ([1]; RebM 700 ppm, above 200 ppm sensory modifier): 2 | Spikey/rounded (spikey = 0) (rounded = 3) ([1]; RebM 800 ppm + yerba mate mono/dicaffeoylquinic acids 800 ppm (1:1)): 2 | Spikey/rounded (spikey = 0) (rounded = 3) ([1]; RebM 900 ppm + yerba mate mono/dicaffeoylquinic acids 900 ppm (1:1)): 2 | Spikey/rounded (spikey = 0) (rounded = 3) ([1]; RebM 1000 ppm + yerba mate mono/dicaffeoylquinic acids 1000 ppm (1:1)): 2 | Spikey/rounded (spikey = 0) (rounded = 3) ([1]; RebM 1100 ppm + yerba mate mono/dicaffeoylquinic acids 1100 ppm (1:1)): 2 | Spikey/rounded (spikey = 0) (rounded = 3) ([1]; RebM 1200 ppm + yerba mate mono/dicaffeoylquinic acids 1200 ppm (1:1)): 2 | Spikey/rounded (spikey = 0) (rounded = 3) ([1]; RebM 1300 ppm + yerba mate mono/dicaffeoylquinic acids 1300 ppm (1:1)): 2 | Spikey/rounded (spikey = 0) (rounded = 3) ([1]; RebM 1400 ppm + yerba mate mono/dicaffeoylquinic acids 1400 ppm (1:1)): 2 | Spikey/rounded (spikey = 0) (rounded = 3) ([1]; RebM 1500 ppm + yerba mate mono/dicaffeoylquinic acids 1500 ppm (1:1)): 2 | Spikey/rounded (spikey = 0) (rounded = 3) ([1]; RebM 1600 ppm + yerba mate mono/dicaffeoylquinic acids 1600 ppm (1:1)): 2 | rounded quality ([1]; RebM solution with 300 ppm sensory modifier): 3 | Spikey/rounded (spikey = 0) (rounded = 3) [1, 8]: 2 | Spikey/rounded (spikey = 0) (rounded = 3) [1, 9]: 2 | Spikey/rounded (spikey = 0) (rounded = 3) [1, 10]: 3 | Spikey/rounded (spikey = 0) (rounded = 3) [1, 11]: 3 | Spikey/rounded (spikey = 0) (rounded = 3) [1, 12]: 3 | Spikey/rounded (spikey = 0) (rounded = 3) [1, 13]: 2 | Spikey/rounded (spikey = 0) (rounded = 3) [1, 14]: 3 | Spikey/rounded (spikey = 0) (rounded = 3) [1, 15]: 3 | Spikey/rounded (spikey = 0) (rounded = 3) [1, 16]: 3 | Spikey/rounded (spikey = 0) (rounded = 3) [1, 17]: 0 | Off taste [2, 18]: 0 | Off taste [2, 5]: 0 | Off taste [2, 7]: 0 | off taste ([2]; RebM 700 ppm, about 200 ppm and above of sensory modifier): not perceptible; also recorded: between slight and none | off taste [2, 19]: none | Off taste [2, 8]: 0 | Off taste [2, 9]: 0 | Off taste [2, 10]: 2 | Off taste [2, 11]: 0 | Off taste [2, 12]: 0 | Off taste [2, 13]: 2 | Off taste [2, 14]: 0 | Off taste [2, 15]: 0 | Off taste [2, 16]: 2 | Off taste [2, 17]: 5 | Astringency ([3]; RebM 700 ppm + cichoric acid (tartaric backbone) 514 ppm): 0 | Astringency [3, 20]: 4 | Astringency [3, 18]: 0 | Astringency [3, 5]: 0 | Astringency [3, 6]: 0 | Astringency [3, 7]: 0 | Astringency ([3]; RebM 700 ppm, 0 ppm to 700 ppm of quinic backbone modifier): no perceptible astringency; also recorded: imperceptible | Astringency [3, 8]: 0 | Astringency [3, 9]: Not observed | Astringency [3, 10]: Not observed | Astringency [3, 11]: 0 | Astringency [3, 12]: 0 | Astringency [3, 13]: Not observed | Astringency [3, 14]: Not observed | Astringency [3, 15]: 0 | Astringency [3, 16]: Not observed | Astringency [3, 17]: 0 | Bitterness [4, 20]: 0 | Bitterness [4, 18]: 0 | Bitterness [4, 5]: 0 | Bitterness [4, 6]: 0 | Bitterness ([4]; RebM 700 ppm, about 200 ppm sensory modifier and above): not perceptible | Sweetness linger ([4]; Table 16: RebM 700 ppm + yerba mate mono/dicaffeoylquinic acids 236 ppm): 0 | Sweetness linger ([4]; Table 16: RebM 700 ppm + yerba mate mono/dicaffeoylquinic acids 300 ppm): 0 | Sweetness linger ([4]; Table 16: RebM 700 ppm + yerba mate mono/dicaffeoylquinic acids 400 ppm): 0 | Sweetness linger ([4]; Table 16: RebM 700 ppm + yerba mate mono/dicaffeoylquinic acids 472 ppm): 0 | Sweetness linger ([4]; Table 16: RebM 700 ppm + yerba mate mono/dicaffeoylquinic acids 500 ppm): 0 | Sweetness linger ([4]; Table 16: RebM 700 ppm + yerba mate mono/dicaffeoylquinic acids 600 ppm): 0 | Sweetness linger ([4]; Table 16: RebM 700 ppm + yerba mate mono/dicaffeoylquinic acids 700 ppm): 0 | Sweetness linger ([4]; Table 16: RebM 700 ppm + yerba mate mono/dicaffeoylquinic acids 708 ppm): 0 | Sweetness linger ([4]; Table 16: RebM 700 ppm + yerba mate mono/dicaffeoylquinic acids 800 ppm): 0 | Sweetness linger ([4]; Table 16: RebM 700 ppm, sensory modifier 0 ppm): 5 | Bitterness [4, 19]: none | Bitterness [4, 8]: 0 | Bitterness [4, 11]: 0 | Bitterness [4, 15]: 0 | Bitterness [4, 17]: 5
